Results taken from ChEMBL document CHEMBL3044933, “Synthesis and insect antifeedant activity of aurones against Spodoptera litura larvae” (J Agric Food Chem, 2007).
The source made the active and inactive calls. No cut-off for these calls is given here.

Assays:
[1] = test system: Spodoptera litura; assay: Antifeedant activity against Spodoptera litura in compound treated cork borer from fresh sweet potato leaves assessed as leaf disk consumed at 0.33 mg/cm2 at 26.5 degC; assay type: functional
[2] = test system: Spodoptera litura; assay: Antifeedant activity against Spodoptera litura in compound treated cork borer from fresh sweet potato leaves assessed as leaf disk consumed at 26.5 degC; assay type: functional
[3] = Lipophilicity, log k of the compound from retention time in ODS HPLC

Row | log k [3] | Structure (SMILES) | Activity [1] [%] | ED50 [2] | pED50 [2]
1 | – | COc1cc(/C=C2\Oc3ccccc3C2=O)ccc1O | <40 | inactive | –
2 | – | O=C1/C(=C/c2ccccc2)Oc2ccccc21 [(Z)-AURONE] | <40 | inactive | –
3 | – | Cc1cc(C)c2c(c1)OCC2=O [4,6-DIMETHYLCOUMARANONE] | – | 0.68 umol/cm2 | 6.17
4 | – | O=C1/C(=C/c2cccc(Cl)c2)Oc2ccccc21 | <40 | inactive | –
5 | – | COc1cc(OC)c2c(c1)OCC2=O [4,6-DIMETHOXYCOUMARANONE] | – | 3.87 umol/cm2 | 5.41
6 | – | C/C=C(/C)C(=O)O[C@H]1C[C@@H](OC(C)=O)[C@@]2(C)CO[C@H]3[C@H]4O[C@@H]5C[C@@H](c6ccoc6)C(C)=C5[C@@]4(C)[C@H](CC(=O)OC)[C@]1(C)[C@@H]32 [SALANNIN] | – | 0.066 umol/cm2 | 7.18
7 | 0.382 | CCOc1cc(/C=C2\Oc3ccccc3C2=O)ccc1O | – | 1.96 umol/cm2 | 5.71
8 | 0.741 | COc1cc(/C=C2\Oc3ccccc3C2=O)cc(OC)c1 | – | 3.45 umol/cm2 | 5.46
9 | – | COc1ccccc1/C=C1\Oc2ccccc2C1=O [(Z)-2'-METHOXYAURONE] | <40 | inactive | –
10 | – | O=C1COc2ccccc21 [3-COUMARANONE] | <40 | inactive | –
11 | 0.624 | O=C1/C(=C/c2ccc3c(c2)OCO3)Oc2ccccc21 | – | 1.61 umol/cm2 | 5.79
12 | 0.737 | COc1cccc(/C=C2\Oc3ccccc3C2=O)c1 [3'-METHOXY-AURONE] | – | 1.01 umol/cm2 | 6
13 | – | COc1cc(OC)c2c(c1)O/C(=C\c1ccc(C)c(C)c1)C2=O | <40 | inactive | –
14 | 0.56 | COc1cc(OC)c2c(c1)O/C(=C\c1ccccc1)C2=O | – | 0.85 umol/cm2 | 6.07
15 | 0.741 | COc1ccc(/C=C2\Oc3ccccc3C2=O)cc1OC [3',4'-DIMETHOXY-AURONE] | – | 0.86 umol/cm2 | 6.07
16 | – | COc1cc(/C=C2\Oc3ccccc3C2=O)cc(OC)c1OC | <40 | inactive | –
17 | – | Cc1cc(C)c2c(c1)O/C(=C\c1ccc(C)c(C)c1)C2=O | <40 | inactive | –
18 | – | O=C1/C(=C/c2ccc(O)c(O)c2)Oc2ccccc21 | <40 | inactive | –
19 | – | COc1cc2c(c(OC)c1OC)C(=O)CO2 [4,5,6-TRIMETHOXYCOUMARANONE] | – | 0.41 umol/cm2 | 6.39
20 | 1.05 | O=C1/C(=C/c2cccc(Br)c2)Oc2ccccc21 | – | 4.21 umol/cm2 | 5.38
21 | 0.689 | COc1ccc(/C=C2\Oc3ccccc3C2=O)cc1 [4'-METHOXY-AURONE] | – | 2.03 umol/cm2 | 5.69
22 | – | COc1ccc(/C=C2\Oc3cc(OC)c(OC)c(OC)c3C2=O)cc1OC | <40 | inactive | –
23 | – | COc1ccc(/C=C2\Oc3cc(C)cc(C)c3C2=O)cc1OC | – | 1.02 umol/cm2 | 5.99

Row | Structure (SMILES) | log k [3] | Activity [1] [%] | ED50 [2] | pED50 [2]
24 | COc1cc(OC)c2c(c1)O/C(=C\c1ccc(OC)c(OC)c1)C2=O [4,6,3',4'-TETRAMETHOXYAURONE] | 0.277 | – | 0.12 umol/cm2 | 6.92
